From US7041687B2, “Indazole compounds useful as protein kinase inhibitors” (Vertex Pharmaceuticals Incorporated, priority 2002, dated 2006)
Several values for one entry are separate records, joined by “and”; a condition that tells them apart may be missing. Identical values can stand only once.

What was measured:
Type in all cases: biochemical
PDK-1 = target: T1, PDK-1 (Homo sapiens, UniProt O15530); assay: PDK-1 inhibition assay (radioactive-phosphate incorporation); settings: 40 μM ATP, 65 μM PDKtide, 25 nM PDK-1, 30° C.
T1 sequence (O15530 1-556): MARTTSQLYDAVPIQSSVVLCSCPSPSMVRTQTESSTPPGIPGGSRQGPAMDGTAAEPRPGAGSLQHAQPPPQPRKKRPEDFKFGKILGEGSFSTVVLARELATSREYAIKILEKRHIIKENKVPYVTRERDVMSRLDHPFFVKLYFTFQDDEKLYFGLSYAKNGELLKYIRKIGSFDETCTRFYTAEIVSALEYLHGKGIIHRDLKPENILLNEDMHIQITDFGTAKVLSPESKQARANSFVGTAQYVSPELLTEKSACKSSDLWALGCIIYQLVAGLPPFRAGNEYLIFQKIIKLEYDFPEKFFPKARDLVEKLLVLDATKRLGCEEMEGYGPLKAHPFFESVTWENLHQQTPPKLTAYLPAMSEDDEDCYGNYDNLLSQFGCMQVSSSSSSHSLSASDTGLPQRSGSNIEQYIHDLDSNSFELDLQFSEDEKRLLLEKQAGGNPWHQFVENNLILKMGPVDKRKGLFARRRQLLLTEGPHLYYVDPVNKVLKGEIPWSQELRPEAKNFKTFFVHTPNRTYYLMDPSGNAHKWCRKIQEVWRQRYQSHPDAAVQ

AKT-3 = AKT-3 (Homo sapiens, UniProt Q9Y243); assay: AKT-3 inhibition assay (standard coupled enzyme assay); settings: 170 μM ATP, 200 μM peptide, 45 nM AKT, 30° C.
Procedure: Assays were carried out in a mixture of 100 mM HEPES 7.5, 10 mM MgCl2, 25 mM NaCl, 1 mM DTT and 3% DMSO. Final substrate concentrations in the assay were 170 μM ATP (Sigma Chemicals) and 200 μM peptide (RPRAATF, American Peptide, Sunnyvale, Calif.). Assays were carried out at 30° C. and 45 nM AKT. Final concentrations of the components of the coupled enzyme system were 2.5 mM phosphoenolpyruvate, 300 μM NADH, 30 μg/ML pyruvate kinase and 10 μg/ml lactate dehydrogenase.
An assay stock buffer solution was prepared containing all of the reagents listed above, with the exception of AKT, DTT, and the test compound of interest. 55 μl of the stock solution was placed in a 96 well plate followed by addition of 2 μl of 1 mM DMSO stock containing the test compound (final compound concentration 30 μM). The plate was pre-incubated for about 10 minutes at 30° C. and the reaction initiated by addition of 10 μl of enzyme (final concentration 45 nM) and 1 mM DTF. Rates of reaction were obtained using a Molecular Devices SpectraMax Plus plate reader over a 15 minute read time at 30° C.

PKA = PKA (Homo sapiens, UniProt P17612); assay: PKA inhibition assay (standard coupled enzyme assay); settings: 50 μM ATP, 80 μM Kemptide, 18 nM PKA, 30° C.
Procedure: Compounds were screened for their ability to inhibit PKA using a standard coupled enzyme assay (Fox et al., Protein Sci., (1998) 7, 2249). Assays were carried out in a mixture of 100 mM HEPES 7.5, 10 mM MgCl2, 25 mM NaCl, 1 mM DTT and 3% DMSO. Final substrate concentrations in the assay were 50 μM ATP (Sigma Chemicals) and 80 μM peptide (Kemptide, American Peptide, Sunnyvale, Calif.). Assays were carried out at 30° C. and 18 nM PKA. Final concentrations of the components of the coupled enzyme system were 2.5 mM phosphoenolpyruvate, 300 μM NADH, 30 μg/ml pyruvate kinase and 10 μg/ml lactate dehydrogenase.
An assay stock buffer solution was prepared containing all of the reagents listed above, with the exception of ATP, and the test compound of interest. 55 μl of the stock solution was placed in a 96 well plate followed by addition of 2 μl of DMSO stock containing serial dilutions of the test compound (typically starting from a final concentration of 5 μM). The plate was preincubated for 10 minutes at 30° C. and the reaction initiated by addition of 5 μl of ATP (final concentration 50 μM). Initial reaction rates were determined with a Molecular Devices SpectraMax Plus plate reader over a 15 minute time course. IC50 and Ki data were calculated from non-linear regression analysis using the Prism software package (GraphPad Prism version 3.0a for Macintosh, GraphPad Software, San Diego Calif., USA).

AKT-3, sequence (Q9Y243 whole entry): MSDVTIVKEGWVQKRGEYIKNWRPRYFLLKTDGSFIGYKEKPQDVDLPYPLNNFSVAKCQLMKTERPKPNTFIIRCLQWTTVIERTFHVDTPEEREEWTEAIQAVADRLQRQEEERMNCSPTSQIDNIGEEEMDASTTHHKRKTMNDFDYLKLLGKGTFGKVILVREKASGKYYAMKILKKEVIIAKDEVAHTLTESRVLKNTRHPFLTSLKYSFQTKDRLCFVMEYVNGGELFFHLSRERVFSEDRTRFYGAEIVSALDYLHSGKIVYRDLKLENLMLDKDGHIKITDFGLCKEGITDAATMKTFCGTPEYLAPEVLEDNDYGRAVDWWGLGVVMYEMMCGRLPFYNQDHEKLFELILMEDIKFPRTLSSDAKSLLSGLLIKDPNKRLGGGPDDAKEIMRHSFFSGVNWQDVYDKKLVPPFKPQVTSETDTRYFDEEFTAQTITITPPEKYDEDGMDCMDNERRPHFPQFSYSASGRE

NCCC(C(=O)Nc1ccc2[nH]nc(Nc3cccc(F)c3)c2c1)c1ccc(Cl)c(Cl)c1 (stereo not drawn) [Compound I-213]
Ki (PDK-1): 1000 to 3000 nM | Ki (AKT-3): < 1000 nM

CC(C)c1cccc(-c2n[nH]c3ccc(NC(=O)C(CCN)c4ccc(Cl)c(Cl)c4)cc23)c1 (stereo not drawn) [Compound I-222]
Ki (PDK-1): > 3000 nM | Ki (AKT-3): < 1000 nM

NCCC(C(=O)Nc1ccc2[nH]nc(-c3cccc(Cl)c3)c2c1)c1ccccc1 (stereo not drawn) [Compound I-241]
Ki (PDK-1): < 1000 nM | Ki (AKT-3): 1000 to 10000 nM

COC(=O)c1cccc(-c2n[nH]c3ccc(NC(=O)C(CCN)c4ccccc4)cc23)c1 (stereo not drawn) [Compound I-244]
Ki (PKA): < 1000 nM

NCCC(C(=O)Nc1ccc2[nH]nc(-c3cccc(C(=O)O)c3)c2c1)c1ccccc1 (stereo not drawn) [Compound I-246]
Ki (PKA): < 1000 nM

CC(=O)c1ccc(-c2n[nH]c3ccc(NC(=O)C(CCN)c4ccccc4)cc23)cc1 (stereo not drawn) [Compound I-250]
Ki (PDK-1): < 1000 nM | Ki (AKT-3): 1000 to 10000 nM

Cc1cccc(-c2n[nH]c3ccc(NC(=O)C(CCN)c4ccc(Cl)c(Cl)c4)cc23)c1 (stereo not drawn) [Compound I-251]
Ki (PDK-1): < 1000 nM | Ki (AKT-3): < 1000 nM

NCCC(C(=O)Nc1ccc2[nH]nc(-c3cccc(Cl)c3)c2c1)c1ccc(Cl)c(Cl)c1 (stereo not drawn) [Compound I-253]
Ki (PDK-1): < 1000 nM | Ki (AKT-3): < 1000 nM

NCC(C(=O)Nc1ccc2[nH]ncc2c1)c1cccc(Cl)c1F (stereo not drawn) [Compound I-257]
Ki (PDK-1): > 3000 nM | Ki (AKT-3): < 1000 nM

NCC(C(=O)Nc1ccc2[nH]ncc2c1)c1ccc(Cl)cc1F (stereo not drawn) [Compound I-258]
Ki (PDK-1): > 3000 nM | Ki (AKT-3): < 1000 nM

N#Cc1ccc(-c2n[nH]c3ccc(NC(=O)C(CCN)c4ccccc4)cc23)cc1 (stereo not drawn) [Compound I-259]
Ki (PDK-1): < 1000 nM | Ki (AKT-3): 1000 to 10000 nM

COc1ccccc1C(CCN)C(=O)Nc1ccc2[nH]ncc2c1 (stereo not drawn) [Compound I-1005]
Ki (PDK-1): 1000 to 3000 nM | Ki (AKT-3): < 1000 nM

O=C(CCC(C(=O)O)c1ccccc1)Nc1ccc2[nH]ncc2c1 (stereo not drawn) [Compound I-1014]
Ki (PDK-1): > 3000 nM | Ki (AKT-3): < 1000 nM

COc1cccc(C(CCN)C(=O)Nc2ccc3[nH]nc(C)c3c2)c1 (stereo not drawn) [Compound I-1018]
Ki (PDK-1): 1000 to 3000 nM | Ki (AKT-3): 1000 to 10000 nM

Cc1cccc(Nc2n[nH]c3ccc(NC(=O)C(CCN)c4ccccc4)cc23)c1 (stereo not drawn) [Compound I-1038]
Ki (PDK-1): 1000 to 3000 nM | Ki (AKT-3): 1000 to 10000 nM

NCCC(C(=O)Nc1ccc2[nH]nc(C(=O)Nc3ccccc3)c2c1)c1ccccc1 (stereo not drawn) [Compound I-1040]
Ki (PDK-1): 1000 to 3000 nM | Ki (AKT-3): 10000 to 20000 nM

NCC[C@@H](C(=O)Nc1ccc2[nH]nc(NC(=O)c3cccs3)c2c1)c1c(F)ccc(Cl)c1F [Compound I-1045]
Ki (PDK-1): < 1000 nM | Ki (AKT-3): < 1000 nM

NCC[C@H](C(=O)Nc1ccc2[nH]nc(NC(=O)c3cccs3)c2c1)c1c(F)ccc(Cl)c1F [Compound I-1046]
Ki (PDK-1): < 1000 nM | Ki (AKT-3): < 1000 nM

N#Cc1cccc(Nc2n[nH]c3ccc(NC(=O)[C@H](CCN)c4c(F)ccc(Cl)c4F)cc23)c1 [Compound I-1047]
Ki (PDK-1): > 3000 nM | Ki (AKT-3): < 1000 nM

N#Cc1cccc(Nc2n[nH]c3ccc(NC(=O)[C@@H](CCN)c4c(F)ccc(Cl)c4F)cc23)c1 [Compound I-1048]
Ki (PDK-1): < 1000 nM | Ki (AKT-3): 1000 to 10000 nM

NCC[C@@H](C(=O)Nc1ccc2[nH]nc(NC(=O)c3cccs3)c2c1)c1ccccc1 [Compound I-1049]
Ki (PDK-1): < 1000 nM | Ki (AKT-3): < 1000 nM

NCCC(C(=O)Nc1ccc2[nH]nc(NC(=O)C3CCCCC3)c2c1)c1ccccc1 (stereo not drawn) [Compound I-1050]
Ki (PDK-1): > 3000 nM | Ki (AKT-3): 1000 to 10000 nM

NCCC(C(=O)Nc1ccc2[nH]nc(NC(=O)COc3ccccc3)c2c1)c1ccccc1 (stereo not drawn) [Compound I-1051]
Ki (PDK-1): > 3000 nM | Ki (AKT-3): 1000 to 10000 nM

NCC[C@@H](C(=O)Nc1ccc2[nH]nc(-c3ccccc3)c2c1)c1ccccc1 [Compound I-1052]
Ki (PDK-1): < 1000 nM | Ki (AKT-3): 1000 to 10000 nM

N#Cc1cccc(Nc2n[nH]c3ccc(NC(=O)[C@H](CCN)c4ccccc4)cc23)c1 [Compound I-1054]
Ki (PDK-1): 1000 to 3000 nM and > 3000 nM | Ki (AKT-3): < 1000 nM

N#Cc1cccc(Nc2n[nH]c3ccc(NC(=O)[C@@H](CCN)c4ccccc4)cc23)c1 [Compound I-1055]
Ki (PDK-1): 1000 to 3000 nM | Ki (AKT-3): 1000 to 10000 nM

NCC[C@@H](C(=O)Nc1ccc2[nH]nc(-c3ccccc3)c2c1)c1c(F)ccc(Cl)c1F [Compound I-1056]
Ki (PDK-1): < 1000 nM | Ki (AKT-3): 1000 to 10000 nM

NCC[C@H](C(=O)Nc1ccc2[nH]nc(-c3ccccc3)c2c1)c1c(F)ccc(Cl)c1F [Compound I-1057]
Ki (PDK-1): < 1000 nM | Ki (AKT-3): 10000 to 20000 nM
